These results are taken from patent US20040082757A1, “Echinocandin derivatives, pharmaceutical compositions containing same and use thereof as drugs” (priority 2001, published 2004).

SMILES strings stand for the structures. Numbered stars: 1 amine (or outer) side, 2 acyl side, 3 side chain; on linkers, the order of the positions; unused ones are H or OH. Bridge positions count the residues as written; N and C are the ends. Square brackets hold non-standard residues; d marks the D form. Peptide text beside a SMILES is read from it. * marks the point of attachment. ξ: configuration not given here. ξhTyr(βξ-OH,3-OSO3H) = NC(C(=O)O)C(O)Cc1ccc(O)c(OS(=O)(=O)O)c1; ξOrn(4,5-diOH) = O=C(C(CC(O)C(O)N[*:3])N[*:1])[*:2]; X3 = CCCCCOc1ccc(-c2cc(-c3ccc(C(=O)*)cc3)no2)cc1; ξOrn(4ξ-OH) = O=C(C(CC(O)CN[*:3])N[*:1])[*:2]; ξPro(3ξ-OH,4ξ-Me) = CC1CNC(C(=O)O)C1O; X2 = NC(=O)CC(O)C(N[*:1])C(=O)[*:2]; X1 = O=C(C1C(O)C(O)CN1[*:1])[*:2]; ξT = CC(O)C(N)C(=O)O

The melting point is the temperature, or range, at which the solid turns liquid. Broadly, the MIC is the least concentration at which growth counts as inhibited.

Test system in one data set: not given
Assay: not given
Settings: not given
Consider `CC(O)C1NC(=O)C(N)CC(O)CNC(=O)C2C(O)C(C)CN2C(=O)C(C(O)CC(N)=O)NC(=O)C(C(O)Cc2ccc(O)c(OS(=O)(=O)O)c2)NC(=O)C2CCCN2C1=O` (stereo not drawn) [Object Compound (1)] (H-[ξOrn(4ξ-OH)]TP[ξhTyr(βξ-OH,3-OSO3H)][X2][ξPro(3ξ-OH,4ξ-Me)]; lactam 1-C; configuration not given here), for which the melting point is 250 to 260 °C (dec.).

For `CC1CN2C(=O)C(C(O)CC(N)=O)NC(=O)C(C(O)Cc3ccc(O)c(OS(=O)(=O)O)c3)NC(=O)C3CCCN3C(=O)C(CO)NC(=O)C(N)CC(O)CNC(=O)C2C1O` (stereo not drawn) [Object Compound (3)] (H-[ξOrn(4ξ-OH)]SP[ξhTyr(βξ-OH,3-OSO3H)][X2][ξPro(3ξ-OH,4ξ-Me)]; lactam 1-C; configuration not given here), the melting point was 255 to 260 °C (dec.).

Take `CC(O)C1NC(=O)C(N)CC(O)C(O)NC(=O)C2C(O)C(C)CN2C(=O)C(C(O)CC(N)=O)NC(=O)C(C(O)Cc2ccc(O)c(OS(=O)(=O)O)c2)NC(=O)C2C(O)C(O)CN2C1=O` (stereo not drawn) [Object Compound (2)] (H-[ξOrn(4,5-diOH)][ξT][X1][ξhTyr(βξ-OH,3-OSO3H)][X2][ξPro(3ξ-OH,4ξ-Me)]; lactam 1-C): the melting point is 215 to 220 °C (dec.).

For another data set, the system named is Candida albicans FP 633. In words: Antimicrobial activity test: antifungal susceptibility by microdilution method (NCCLS M27-A), MIC. The note with it: FP633, RPMI 1640, pH 7.0, 35° C., lowest concentration with no visible growth. Type of data set: cell-based. As to the method:
The antifungal susceptibility assays were performed by the microdilution method according to M27-A guidelines recommended by the National Committee for Clinical Laboratory Standards (NCCLS) to determine the MICs of the compounds. RPMI 1640 medium with L-glutamine, without sodium bicarbonate and buffered with 165 mM morpholinepropanesulfonic acid buffer (pH 7.0) was used as a test medium. Inoculum suspension of 10^6 CFU/ml were prepared by a hemocytometric procedure and diluted to obtain an inoculum size of approximately 0.5×10^3 to 2.5×10^3 CFU/ml. Microplates were incubated at 35° C., and readings were taken when good growth in the growth control. The MICs were defined as the lowest concentrations at which no visible growth was observed.
In general terms: In broth dilution the organism is exposed to a series of concentrations in liquid medium.
As to `CCCCCOc1ccc(-c2cc(-c3ccc(C(=O)NC4CC(O)CNC(=O)C5C(O)C(C)CN5C(=O)C(C(O)CC(N)=O)NC(=O)C(C(O)Cc5ccc(O)c(OS(=O)(=O)[O-])c5)NC(=O)C5CCCN5C(=O)C(C(C)O)NC4=O)cc3)no2)cc1.[Na+]` (stereo not drawn) [Object Compound (8)] (X3-[ξOrn(4ξ-OH)]TP[ξhTyr(βξ-OH,3-OSO3H)][X2][ξPro(3ξ-OH,4ξ-Me)]; lactam 1-C; configuration not given here), the MIC is less than 0.1 µg/mL.

With `CCCCCOc1ccc(-c2cc(-c3ccc(C(=O)NC4CC(O)CNC(=O)C5C(O)C(C)CN5C(=O)C(C(O)CC(N)=O)NC(=O)C(C(O)Cc5ccc(O)c(OS(=O)(=O)[O-])c5)NC(=O)C5CCCN5C(=O)C(CO)NC4=O)cc3)no2)cc1.[Na+]` (stereo not drawn) [Object Compound (10)] (X3-[ξOrn(4ξ-OH)]SP[ξhTyr(βξ-OH,3-OSO3H)][X2][ξPro(3ξ-OH,4ξ-Me)]; lactam 1-C; configuration not given here), the MIC was less than 0.1 µg/mL.

`CCCCCOc1ccc(-c2cc(-c3ccc(C(=O)NC4CC(O)C(O)NC(=O)C5C(O)C(C)CN5C(=O)C(C(O)CC(N)=O)NC(=O)C(C(O)Cc5ccc(O)c(OS(=O)(=O)[O-])c5)NC(=O)C5C(O)C(O)CN5C(=O)C(C(C)O)NC4=O)cc3)no2)cc1.[Na+]` (stereo not drawn) [Object Compound (9)] gave an MIC of less than 0.02 µg/mL.
